Nine compounds from PubChem BioAssay AID330 (DTP/NCI, 2004) can be followed below.

Structures are written as SMILES. “And” between values parts separate entries of the source, which are not always exact repeats. Equal entries are not always repeated. Inconclusive results and toxic doses are left out.

The test has as its system P388 leukemia ip, CD2F1 mice, survival T/C. The experiment in a line: NCI In Vivo Anticancer Drug Screen. Data for tumor model P388 Leukemia (intraperitoneal) in CD2F1 (CDF1) mice. The note with it: endpoint: median survival time, higher = longer survival. A digest of the protocol:
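Mice carrying the transplanted tumor received test compound or vehicle. Survival was recorded in each group, and the value is the treated-group measurement divided by that of the vehicle-treated control group.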

Where [1] appears, read: dose: 50.0 mg/kg/injection, schedule: Q04DX003 (ip), vehicle: saline with Tween-80.
The mark [2] stands for this setting: dose: 100.0 mg/kg/injection, schedule: Q04DX003 (ip), vehicle: saline with Tween-80.

On to `COc1ccc(Cc2cc(N=NC(N)=O)c(OC)cc2O)cc1`, for which the T/C is 93 % of control (dose: 12.5 mg/kg/injection, schedule: Q01DX005 (ip), vehicle: saline with Tween-80); 87 % of control (dose: 25.0 mg/kg/injection, schedule: Q01DX005 (ip), vehicle: saline with Tween-80); 88 % of control (dose: 50.0 mg/kg/injection, schedule: Q01DX005 (ip), vehicle: saline with Tween-80).

On to `Cc1ccc2ncccc2c1`, for which the T/C under setting [1] is 102 % of control; the T/C under setting [2] is 101 % of control; the T/C (dose: 200.0 mg/kg/injection, schedule: Q04DX003 (ip), vehicle: saline with Tween-80) was 98 % of control.

Regarding `C/C=C/C(=O)OCC1CCN(C)C1` (stereo not drawn), the T/C reads like this: (dose: 12.5 mg/kg/injection, schedule: Q01DX009 (ip), vehicle: Klucel (hydroxypropylcellulose) (HPC)) 95 % of control; (dose: 25.0 mg/kg/injection, schedule: Q01DX009 (ip), vehicle: Klucel (hydroxypropylcellulose) (HPC)) 94 % of control; (dose: 50.0 mg/kg/injection, schedule: Q01DX009 (ip), vehicle: Klucel (hydroxypropylcellulose) (HPC)) 96 % of control; (dose: 100.0 mg/kg/injection, schedule: Q01DX009 (ip), vehicle: Klucel (hydroxypropylcellulose) (HPC)) 94 % of control; (dose: 200.0 mg/kg/injection, schedule: Q01DX009 (ip), vehicle: Klucel (hydroxypropylcellulose) (HPC)) 89 % of control.

`CC(C)NC1CC2CCCCC2CC1c1ccccc1` (stereo not drawn): the T/C is 93 % of control (dose: 100.0 mg/kg/injection, schedule: Q01DX001 (ip), vehicle: Klucel (hydroxypropylcellulose) (HPC)); 93 % of control (dose: 200.0 mg/kg/injection, schedule: Q01DX001 (ip), vehicle: Klucel (hydroxypropylcellulose) (HPC)); 88 % of control (dose: 400.0 mg/kg/injection, schedule: Q01DX001 (ip), vehicle: Klucel (hydroxypropylcellulose) (HPC)).

In the case of `CCC1CN1P(=O)(N(CC)CC)N1CC1CC` (stereo not drawn), the T/C by setting is: (dose: 50.0 mg/kg/injection, schedule: Q01DX009 (ip), vehicle: saline) 109 % of control; (dose: 100.0 mg/kg/injection, schedule: Q01DX009 (ip), vehicle: saline) 170 % of control.

Take `C=CCC(C(=O)OC)c1ccccc1` (stereo not drawn): the T/C (dose: 0.4 mg/kg/injection, schedule: Q01DX009 (ip), vehicle: saline with Tween-80) is 99 % of control; the T/C (dose: 0.8 mg/kg/injection, schedule: Q01DX009 (ip), vehicle: saline with Tween-80) is 98 % of control; the T/C (dose: 1.6 mg/kg/injection, schedule: Q01DX009 (ip), vehicle: saline with Tween-80) is 104 % of control.

`O=c1c2c([nH]c3c1c1[nH]c4c(c(=O)c1c1[nH]c5c(c(=O)c31)CCCC5)CCCC4)CCCC2`: the T/C reads like this: (dose: 25.0 mg/kg/injection, schedule: Q04DX003 (ip), vehicle: saline with Tween-80) 104 % of control; under setting [1], 95 % of control; under setting [2], 87 % of control and 95 % of control.

In the case of `CCOC(=O)c1ccccc1NC(=O)C1C2C=CC(C2)C1C(=O)O` (stereo not drawn), the T/C (dose: 50.0 mg/kg/injection, schedule: Q01DX009 (ip), vehicle: saline + alcohol) is 103 % of control; the T/C (dose: 100.0 mg/kg/injection, schedule: Q01DX009 (ip), vehicle: saline + alcohol) was 104 % of control; the T/C (dose: 200.0 mg/kg/injection, schedule: Q01DX009 (ip), vehicle: saline + alcohol) was 97 % of control.

In the case of `O=C(NCCNC(=O)c1cc(Cl)cc(Cl)c1O)c1cc(Cl)cc(Cl)c1O`, the T/C (dose: 15.0 mg/kg/injection, schedule: Q01DX005 (ip), vehicle: saline with Tween-80) was 92 % of control; the T/C (dose: 30.0 mg/kg/injection, schedule: Q01DX005 (ip), vehicle: saline with Tween-80) is 92 % of control; the T/C (dose: 60.0 mg/kg/injection, schedule: Q01DX005 (ip), vehicle: saline with Tween-80) was 87 % of control and 89 % of control.
